Data from ChEMBL document CHEMBL1201862, “PubChem BioAssay data set” (2004).
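Values below derive from 48-hour exposures of cells grown in 96-well plates, with endpoints linearly interpolated between the two concentrations bracketing the appropriate inhibition level. GI50 = concentration required for 50% inhibition of growth.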 Activity calls are given as the source filed them. No stated cut-off is given here; in the data, active = GI50 up to about 1.1 µM and inactive = higher.

Assays:
Assay in all cases: DTP human tumour cell line panel, 48 h
786-0 = test system: 786-0
DLD-1 = test system: DLD-1
DMS-273 = test system: DMS-273
HT-29 = test system: HT-29
LXFL 529 = test system: LXFL 529
M14 = test system: M14
M19-MEL = test system: M19-MEL
SF-268 = test system: SF-268
SF-295 = test system: SF-295
SK-MEL-5 = test system: SK-MEL-5
SK-OV-3 = test system: SK-OV-3
SN12C = test system: SN12C
SNB-78 = test system: SNB-78
SR = test system: SR
XF498 = test system: XF498

Measured: GI50

COc1ccc(NC(=O)C(=O)C(C(=O)c2ccccc2)C2OC(=O)c3ccccc32)c([N+](=O)[O-])c1 (stereo not given)
inactive: 786-0 > 100 µM | DLD-1 > 100 µM | DMS-273 > 100 µM | HT-29 > 100 µM | LXFL 529 > 100 µM | M14 > 100 µM | M19-MEL > 100 µM | SF-268 > 100 µM | SF-295 > 100 µM | SK-MEL-5 > 100 µM | SK-OV-3 > 100 µM | SN12C > 100 µM | SNB-78 > 100 µM | SR > 100 µM | XF498 > 100 µM
